Experimental findings from US20240174641A1, “HETEROCYCLIC COMPOUNDS CAPABLE OF […]” (Boehringer Ingelheim International GmbH, priority 2022, published 2024) are described below.

In the test the test system is dog STING (dSTING). Description: Dog differential scanning fluorimetry (DSF) assay, thermal shift of dog STING protein. It counts as binding. Particulars: DSF (dDSF); 100 μM compound, 3 μM dog STING protein; Tm with ligand minus Tm of protein alone. The text has this: The protein used for the biophysical experiments was a recombinant dog STING protein comprising its cytosolic cGAMP binding ectodomain. A codon optimized DNA sequence (for expression in Escherichia coli) encoding amino acid residues 149 to 375 of dog STING was synthesized by GeneArt (Regensburg, Germany) and inserted into a pET17b E. coli expression vector. The protein construct encodes an N-terminal 8×His-tag followed by tobacco etch virus protease (TEV) cleavage site and the above STING gene sequence. The resulting protein sequence for the used dog STING protein (SEQ ID No. 1) is listed below:
For expression of the above recombinant dog STING, the construct was transformed into E. coli BL21 DE3 strain and grown in shake flasks in LB-medium at 15° C. Expression was induced by addition of isopropyl β-D-1-thiogalactopyranoside to a final concentration of 1 mM and cultures shaken overnight. Cell pellets were centrifuged and stored at −70° C. until further use. Protein was purified by cell thawing in lysis buffer (20 mM TRIS-HCl, pH 8, 500 mM NaCl, 1 mM DTT, 0.5 mg/ml lysozyme, Complete Protease Inhibitor (Roche) and DNase (Roche)), followed by metal affinity purification using Ni-NTA resins and elution buffer consisting of 20 mM TRIS-HCl, pH 8, 500 mM NaCl, 1 mM DTT, 300 mM imidazole. Cleavage of the His-Tag using TEV-protease took place during dialysis in size exclusion buffer (20 mM TRIS-HCl, pH 8, 100 mM NaCl, 1 mM DTT) over night. To further purify the target protein a reverse Nickel affinity column was used and the flow through was applied to a size exclusion chromatography. The peak fraction was collected and concentrated to 5 mg/mL.
Dye fluorescence is quenched in aqueous environment and increases upon association of the dye with the hydrophobic parts of the unfolding protein. […] The inflection point of the curve represents the “melting” temperature of the protein (Tm) which is calculated numerically using the Boltzmann equation.
The thermal stability of the dog STING protein was measured in assay buffer containing 20 mM Tris, 150 mM NaCl at pH7.5. The assay uses 384-Well qPCR Plates (Catalog #781358, BRAND), Microseal® ‘B’ Adhesive Seals for PCR Plates (Catalog #MSB-1001, BIO-RAD) and was run on a CFX384 Real-Time System (Bio-Rad). A DMSO stock solution of SYPRO orange (SIGMA 55692-500UL) was prepared. Compound stock solutions (10 mM in DMSO) were diluted 1:2 in DMSO to an intermediate compound concentration of 5 mM and then further diluted 1:40 in assay buffer resulting in a compound concentration of 125 μM and 2.5% DMSO. Fluorescent dye stock solution (5000×SYPRO Orange) was then mixed with target protein and buffer to a concentration of 15 μM Protein and 25×SYPRO Orange. 2 μl of this protein-dye-mixture was added to 8 μl compound solution. Final volume was 10 μL. 3-6 well positions were used as negative control (protein with 2% DMSO). The plates were prepared for duplicate measurement and centrifuged for 2 min at 1000 g. In the measurement, 160 cycles of 0.5° C. were used (temperature ramp 15 s/cycle, 15° C. to 95° C.).
Final Assay concentrations for compound characterization were 100 μM compound, 3 μM target protein, 5×SYPRO Orange, and 2% DMSO in 10 μl. All dispensing steps were performed using a HamiltonStar pipetting robot (Hamilton).
Dissociation curves were processed in Bio-Rad CFX Manager. Peak type was set to “negative”. Compound codes for screen were assigned in the plate layout.
Two replicates of TM measurements were averaged, and the standard deviation was calculated. In cases of SD>1.5° C. the measurement was repeated.
The melting point (Tm) obtained for STING protein alone was subtracted from T obtained for protein incubated with ligand to generate ΔTm values.
A general note: Differential scanning fluorimetry follows unfolding on heating by fluorescence.

Regarding `Cc1cccc2c(-c3c(F)cc(F)c4nn(C)cc34)nn(-c3ccc(N4CC5CCC4CC5C(=O)O)nc3)c12` (single isomer, unassigned) [Example 48-2], the “Delta TM” value came to 24.6 °C.
In the case of `CC(=O)N1C[C@@H]2C[C@H]1CN2c1ccc(-n2nc(-c3cc(F)cc4nn(C)cc34)c3cccc(C)c32)cn1` [Example 41, 1-[(1S,4S)-5-(5-{6″-fluoro-2″,7-dimethyl-1H,2″H-[3,4″-biindazol]-1-yl}pyridin-2-yl)-2,5-diazabicyclo[2.2.1]heptan-2-yl]ethan-1-one] it was 16.0 °C; in that of `Cc1cccc2c(-c3cc(F)cc4nn(C)cc34)nn(-c3ccc(N4C[C@@H]5C[C@H]4C[C@H]5C(=O)O)nc3)c12` (single isomer, unassigned) [Example 38-1], 24.8 °C.
The value for `CC(=O)N1C[C@@H]2C[C@H]1CN2c1ccc(-n2nc(-c3c(F)cc(F)c4nn(C)cc34)c3cccc(C)c32)cn1` [Example 50, 1-[(1S,4S)-5-(5-{5″,7″-difluoro-2″,7-dimethyl-1H,2″H-[3,4″-biindazol]-1-yl}pyridin-2-yl)-2,5-diazabicyclo[2.2.1]heptan-2-yl]ethan-1-one] was 25.0 °C; that for `Cc1cccc2c(-c3cccc4nn(C)c(F)c34)nn(-c3ccc(N4C[C@@H]5C[C@H]4C[C@H]5C(=O)O)nc3)c12` (racemic) [Example 19, 2-(5-{3″-fluoro-2″,7-dimethyl-1H,2″H-[3,4″-biindazol]-1-yl}pyridin-2-yl)-2-azabicyclo[2.2.1]heptane-5-carboxylic acid] was 34.3 °C.
The value for `Cc1cccc2c(-c3cc(F)cc4nn(C)cc34)nn(-c3ccc(N4CCO[C@H](CC(=O)O)C4)nc3)c12` [Example 37-1, 2-[(2R)-4-(5-{6″-fluoro-2″,7-dimethyl-1H,2″H-[3,4″-biindazol]-1-yl}pyridin-2-yl)morpholin-2-yl]acetic acid] was 16.0 °C; that for `CC(=O)N1CC2CCC1CN2c1ccc(-n2nc(-c3c(F)ccc4nn(C)cc34)c3cccc(C)c32)cn1` (stereo not drawn) [Example 32] was 31.0 °C; that for `CC(=O)N1CC2CCC1CN2c1ccc(-n2nc(-c3c(F)cc(F)c4nn(C)cc34)c3cccc(C)c32)cn1` (stereo not drawn) [Example 52, 1-[5-(5-{5″,7″-difluoro-2″,7-dimethyl-1H,2″H-[3,4″-biindazol]-1-yl}pyridin-2-yl)-2,5-diazabicyclo [2.2.2]octan-2-yl]ethan-1-one] was 25.8 °C.
Take `CC(=O)N1CCN(c2ccc(-n3nc(-c4ccc(F)c5nn(C)c(F)c45)c4cccc(C)c43)cn2)CC1` [Example 57, 1-[4-(5-{3″,7″-difluoro-2″,7-dimethyl-1H,2″H-[3,4″-biindazol]-1-yl}pyridin-2-yl)piperazin-1-yl]ethan-1-one]: the “Delta TM” value was determined as 27.5 °C.
As for `Cc1cccc2c(-c3cc(F)cc4nn(C)cc34)nn(-c3ccc(N4CC5CCC4CC5C(=O)O)nc3)c12` (stereo not drawn) [Example 39, 2-(5-{6″-fluoro-2″,7-dimethyl-1H,2″H-[3,4″-biindazol]-1-yl}pyridin-2-yl)-2-azabicyclo [2.2.2]octane-5-carboxylic acid], the “Delta TM” value is −0.3 °C.
In the case of `Cc1cccc2c(-c3c(F)ccc4nn(C)cc34)nn(-c3ccc(N4CCOC(CC(=O)O)C4)nc3)c12` [Example 26-2, 2-[(2S)-4-(5-{5″-fluoro-2″,7-dimethyl-1H,2″H-[3,4″-biindazol]-1-yl}pyridin-2-yl)morpholin-2-yl]acetic acid] it was 32.0 °C; in that of `Cc1c(F)ccc2c(-c3c(F)cc(F)c4nn(C)cc34)nn(-c3ccc(N4C[C@@H]5[C@H](C4)[C@H]5C(=O)O)nc3)c12` [Example 69, (1R,5S,6S)-3-(5-{5″,6,7″-trifluoro-2″,7-dimethyl-1H,2″H-[3,4″-biindazol]-1-yl}pyridin-2-yl)-3-azabicyclo[3.1.0]hexane-6-carboxylic acid], 35.0 °C; in that of `Cc1cccc2c(-c3cccc4nn(C)c(F)c34)nn(-c3ccc(N4CC5CCC4CC5C(=O)O)nc3)c12` (single isomer, unassigned) [Example 20-2, 2-(5-{3'-fluoro-2',7-dimethyl-1H,2'H-[3,4'-biindazol]-1-yl}pyridin-2-yl)-2-azabicyclo[2.2.2]octane-5-carboxylic acid], 22.6 °C.
The value for `Cc1cccc2c(-c3c(F)ccc4nn(C)cc34)nn(-c3ccc(N4CC5CCC4CC5C(=O)O)nc3)c12` (single isomer, unassigned) [Example 28-1] was 26.6 °C; that for `Cc1cccc2c(-c3cc(F)cc4nn(C)cc34)nn(-c3ccc(N4C[C@H]5C[C@@H]4C[C@@H]5C(=O)O)nc3)c12` (single isomer, unassigned) [Example 38-2] was 23.0 °C; that for `Cc1cccc2c(-c3cccc4nn(C)c(F)c34)nn(-c3ccc(N4CC5CCC4CC5C(=O)O)nc3)c12` (single isomer, unassigned) [Example 20-1, 2-(5-{3'-fluoro-2',7-dimethyl-1H,2'H-[3,4'-biindazol]-1-yl}pyridin-2-yl)-2-azabicyclo[2.2.2]octane-5-carboxylic acid] was 20.9 °C.
The value for `Cc1cccc2c(-c3c(F)ccc4nn(C)cc34)nn(-c3ccc(N4CCOC(CC(=O)O)C4)nc3)c12` [Example 26-1, 2-[(2R)-4-(5-{5″-fluoro-2″,7-dimethyl-1H,2″H-[3,4″-biindazol]-1-yl}pyridin-2-yl)morpholin-2-yl]acetic acid] was 31.0 °C; that for `Cc1cccc2c(-c3cc(F)cc4nn(C)cc34)nn(-c3ccc(N4CCO[C@@H](CC(=O)O)C4)nc3)c12` [Example 37-2, 2-[(2S)-4-(5-{6″-fluoro-2″,7-dimethyl-1H,2″H-[3,4″-biindazol]-1-yl}pyridin-2-yl)morpholin-2-yl]acetic acid] was 18.0 °C; that for `Cc1cccc2c(-c3ccc(F)c4nn(C)c(F)c34)nn(-c3ccc(N4C[C@H]5C[C@@H]4C[C@@H]5C(=O)O)nc3)c12` (single isomer, unassigned) [Example 56-2] was 33.0 °C.
Turning to `CC(=O)N1CCN(c2ccc(-n3nc(-c4c(F)cc(F)c5nn(C)cc45)c4ccc(F)c(C)c43)cn2)CC1` [Example 71, 1-[4-(5-{5″,6,7″-trifluoro-2″,7-dimethyl-1H,2″H-[3,4″-biindazol]-1-yl}pyridin-2-yl)piperazin-1-yl]ethan-1-one], the “Delta TM” value was found to be 31.3 °C.
The value for `CC(=O)N1CCN(c2ccc(-n3nc(-c4cc(F)cc5nn(C)cc45)c4cccc(C)c43)cn2)CC1` [Example 40, 1-[4-(5-{6″-fluoro-2″,7-dimethyl-1H,2″H-[3,4″-biindazol]-1-yl}pyridin-2-yl)piperazin-1-yl]ethan-1-one] was 17.8 °C; that for `Cc1cccc2c(-c3cc(F)cc4nn(C)c(F)c34)nn(-c3ccc(N4C[C@@H]5[C@H](C4)[C@H]5C(=O)O)nc3)c12` [Example 75, (1R,5S,6R)-3-(5-{3″,6″-difluoro-2″,7-dimethyl-1H,2″H-[3,4″-biindazol]-1-yl}pyridin-2-yl)-3-azabicyclo[3.1.0]hexane-6-carboxylic acid] was 21.8 °C; that for `Cc1cccc2c(-c3c(F)ccc4nn(C)cc34)nn(-c3ccc(N4CC5CCC4CC5C(=O)O)nc3)c12` (single isomer, unassigned) [Example 28-2] was 25.9 °C.
In the case of `Cc1cccc2c(-c3c(F)cc(F)c4nn(C)cc34)nn(-c3ccc(N4CC5CCC4CC5C(=O)O)nc3)c12` (single isomer, unassigned) [Example 48-1] it was 23.9 °C.
